Values after ≈ are worked out from the molar mass of the structure shown.

The record followed here is ChEMBL document CHEMBL1146848, “The development of novel 1,2-dihydro-pyrimido[4,5-c]pyridazine based inhibitors of lymphocyte specific kinase (Lck)” (Bioorg Med Chem Lett, 2006).

The target in data set [1] is Tyrosine-protein kinase Lck (Homo sapiens, UniProt P06239). The data set can be described thus: Inhibition of human recombinant Lck in presence of 10 mM ATP.
A short description of data set [2]: Aqueous solubility of the compound. The note with it: buffer. The data set is classed as physicochemical.
In a further data set the test system is Jurkat. The data set can be described thus: Inhibition of anti-human CD3 epsilon-stimulated IL2 production in Jurkat E6-1 T cells. The data set is classed as functional, cell-based.
The target of data set [3] is Tyrosine-protein kinase HCK (Homo sapiens, UniProt P08631). The data set can be described thus: Inhibition of human recombinant Hck in presence of 10 mM ATP.
Chain of Tyrosine-protein kinase HCK (P08631 whole entry): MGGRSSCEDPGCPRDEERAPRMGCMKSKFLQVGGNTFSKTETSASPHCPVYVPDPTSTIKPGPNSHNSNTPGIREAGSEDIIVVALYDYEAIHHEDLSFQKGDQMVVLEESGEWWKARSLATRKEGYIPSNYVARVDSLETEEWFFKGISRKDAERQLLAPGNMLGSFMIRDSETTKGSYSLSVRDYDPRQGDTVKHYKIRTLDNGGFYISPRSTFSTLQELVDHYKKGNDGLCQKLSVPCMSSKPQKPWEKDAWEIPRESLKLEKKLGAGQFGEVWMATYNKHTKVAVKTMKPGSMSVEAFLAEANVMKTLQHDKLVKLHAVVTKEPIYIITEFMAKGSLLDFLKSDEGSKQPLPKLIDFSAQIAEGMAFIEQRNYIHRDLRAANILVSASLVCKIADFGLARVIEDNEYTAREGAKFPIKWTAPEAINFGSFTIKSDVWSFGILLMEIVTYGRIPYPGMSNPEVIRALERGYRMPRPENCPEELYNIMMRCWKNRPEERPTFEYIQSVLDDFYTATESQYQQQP
The target of data set [4] is Proto-oncogene tyrosine-protein kinase Src (Homo sapiens, UniProt P12931). The experiment in a line: Inhibition of human recombinant Src in presence of 10 mM ATP.
Chain of Proto-oncogene tyrosine-protein kinase Src (P12931 2-536 limits assumed): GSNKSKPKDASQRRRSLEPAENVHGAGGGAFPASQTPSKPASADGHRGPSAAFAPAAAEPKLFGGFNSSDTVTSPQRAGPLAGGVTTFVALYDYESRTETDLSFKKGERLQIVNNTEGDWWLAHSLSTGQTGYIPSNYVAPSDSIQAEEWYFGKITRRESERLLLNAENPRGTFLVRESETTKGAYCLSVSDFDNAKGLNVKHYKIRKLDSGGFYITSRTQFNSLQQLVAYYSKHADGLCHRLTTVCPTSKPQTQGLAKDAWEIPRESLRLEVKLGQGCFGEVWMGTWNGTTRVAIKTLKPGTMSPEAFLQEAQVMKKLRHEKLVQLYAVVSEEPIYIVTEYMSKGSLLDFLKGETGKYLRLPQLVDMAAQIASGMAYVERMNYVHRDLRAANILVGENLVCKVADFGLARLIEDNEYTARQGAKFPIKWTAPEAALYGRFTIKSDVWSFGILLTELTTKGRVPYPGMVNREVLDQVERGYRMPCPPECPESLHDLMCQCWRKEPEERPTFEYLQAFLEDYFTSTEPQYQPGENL
Data set [5] in a line: Metabolic stability in Sprague-Dawley rat liver microsome after 1 hr. The data set is classed as ADME. The note with it: liver microsomes, read-out: Stability.
Data set [6] can be described thus: Bioavailability in rat. The note with it: in vivo. In kind it is ADME, organism-based.
Data set [7] is described as follows: Half life in rat. The data set is classed as ADME, organism-based. The note with it: in vivo.

Chain of Tyrosine-protein kinase Lck (P06239 whole entry): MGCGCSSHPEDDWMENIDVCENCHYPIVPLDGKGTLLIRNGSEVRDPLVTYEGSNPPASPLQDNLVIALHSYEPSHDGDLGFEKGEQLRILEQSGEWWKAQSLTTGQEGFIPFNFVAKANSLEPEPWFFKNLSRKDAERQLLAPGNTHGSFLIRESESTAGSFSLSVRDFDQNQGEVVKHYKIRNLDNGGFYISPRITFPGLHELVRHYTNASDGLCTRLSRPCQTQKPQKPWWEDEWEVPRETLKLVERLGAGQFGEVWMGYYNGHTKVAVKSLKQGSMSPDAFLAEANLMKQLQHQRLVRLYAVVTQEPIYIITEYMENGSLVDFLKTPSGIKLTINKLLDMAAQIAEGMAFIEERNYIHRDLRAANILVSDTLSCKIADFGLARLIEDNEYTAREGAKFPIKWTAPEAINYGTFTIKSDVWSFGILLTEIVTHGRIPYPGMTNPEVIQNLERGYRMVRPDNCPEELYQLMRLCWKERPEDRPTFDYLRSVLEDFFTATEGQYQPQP

For the compound `COc1ccc(Cl)c(C2=Cc3cnc(Nc4ccc(F)cc4)nc3N3CCC(=O)N23)c1`, in data set [1] (read-out: IC50), the concentration for half-maximal inhibition (IC50) turned out to be 4800 nM. The compound also had a solubility in data set [2] of 7 µg/mL (≈ 16 µM).

Regarding `COC(=O)c1ccc(Nc2ncc3c(n2)N2CCC(=O)N2C(c2c(Cl)cccc2Cl)=C3)cc1`, the IC50 in data set [1] (read-out: IC50) came out at 143 nM.

Consider `CN(C)c1ccc(Nc2ncc3c(n2)N2CCC(=O)N2C(c2cc(O)ccc2Cl)=C3)cc1`, for which the IC50 in data set [1] (read-out: IC50) stood at 10 nM; with Jurkat, 0.546 nM; in data set [3], 546 nM; in data set [4] it was 273 nM. Moreover, the solubility in data set [2] came out at 1 µg/mL (≈ 2.23 µM).

Turning to `CN1C(c2c(Cl)cccc2Cl)=Cc2cnc(Nc3ccc(F)cc3)nc2N1C`, the concentration for half-maximal inhibition (IC50) in data set [1] (read-out: IC50) came out at 3200 nM.

Turning to `COc1ccccc1Nc1ncc2c(n1)N1CCC(=O)N1C(c1c(Cl)cccc1Cl)=C2`, in data set [1] (read-out: IC50), the IC50 was found to be 7270 nM.

Regarding `O=C1CCN2c3nc(Nc4ccccc4)ncc3C=C(c3c(Cl)cccc3Cl)N12`, the IC50 in data set [1] (read-out: IC50) was determined as 182 nM. In data set [2], this compound displayed a solubility of 2 µg/mL (≈ 4.71 µM).

On to `CCN(CC)c1ccc(Nc2ncc3c(n2)N2CCC(=O)N2C(c2c(Cl)cccc2Cl)=C3)cc1`, for which, in data set [1] (read-out: IC50), the IC50 was 43 nM. Also, the solubility in data set [2] was 1 µg/mL (≈ 2.02 µM).

With `CN1CCN(c2ccc(Nc3ncc4c(n3)N3CCC(=O)N3C(c3cc(O)ccc3Cl)=C4)cc2)CC1`, the IC50 in data set [1] (read-out: IC50) was 47 nM; with Jurkat, 2.1 nM; in data set [3] it was 456 nM; in data set [4], 764 nM. The concentration in solution in data set [2] (solubility) was 11 µg/mL (≈ 21.8 µM).

As to `O=C1CCN2c3nc(Nc4ccc(N5CCOCC5)cc4)ncc3C=C(c3c(Cl)cccc3Cl)N12`, the IC50 in data set [1] (read-out: IC50) worked out at 3 nM; in the data set with Jurkat, 2 nM; in data set [3], 160 nM; in data set [4], 104 nM. The amount in solution in data set [2] (solubility) came to 6 µg/mL (≈ 11.8 µM).

Take `CNc1ncc2c(n1)N1CCC(=O)N1C(c1c(Cl)cccc1Cl)=C2`: in data set [1] (read-out: IC50), the IC50 came out at 2810 nM.

Consider `CCOc1ccc(Nc2ncc3c(n2)N2CCC(=O)N2C(c2c(Cl)cccc2Cl)=C3)cc1`, for which the concentration for half-maximal inhibition (IC50) in data set [1] (read-out: IC50) is 285 nM.

In the case of `O=C1CCN2c3nc(Nc4ccc(F)cc4)ncc3C=C(c3c(Cl)cccc3Cl)N12`, the half-maximal inhibitory concentration (IC50) in data set [1] (read-out: IC50) came out at 124 nM. Besides, the solubility in data set [2] worked out at 2 µg/mL (≈ 4.52 µM).

Turning to `CN(C)c1ccc(Nc2ncc3c(n2)N2CCC(=O)N2C(c2c(Cl)cccc2Cl)=C3)cc1`, the IC50 in data set [1] (read-out: IC50) turned out to be 26 nM. The solubility in data set [2] came to 5 µg/mL (≈ 10.7 µM).

For `CN1C(c2ccccc2Cl)=Cc2cnc(Nc3ccc(F)cc3)nc2N1C`, the IC50 entry in data set [1] is “Not Active”.

In the case of `COc1ccc(Cl)c(C2=Cc3cnc(Nc4ccc(N(C)C)cc4)nc3N3CCC(=O)N23)c1`, the IC50 in data set [1] (read-out: IC50) came out at 2840 nM. In addition, the concentration in solution in data set [2] (solubility) was 7 µg/mL (≈ 15.1 µM).

As for `CCN(CC)CCOc1ccc(Nc2ncc3c(n2)N2CCC(=O)N2C(c2c(Cl)cccc2Cl)=C3)cc1`, the 50% inhibitory concentration (IC50) worked out at 2 nM in data set [1] (read-out: IC50), 3.21 nM in the data set on Jurkat, 48 nM in data set [3] and 3 nM in data set [4]. In data set [2], this compound gave a solubility of 33.8 µg/mL (≈ 62.7 µM). Besides, in data set [5], the remaining at 1 h is over 84%. For the same compound, the bioavailability in data set [6] was determined as 14%. This compound also gave a half-life in data set [7] of 1.5 h.

`COc1cccc(Nc2ncc3c(n2)N2CCC(=O)N2C(c2c(Cl)cccc2Cl)=C3)c1`: the half-inhibitory concentration (IC50) in data set [1] (read-out: IC50) was found to be 179 nM.

Regarding `COc1ccc(Nc2ncc3c(n2)N2CCC(=O)N2C(c2c(Cl)cccc2Cl)=C3)cc1`, the IC50 in data set [1] (read-out: IC50) is 71 nM. Further, in data set [2], the solubility came out at 5 µg/mL (≈ 11 µM).

In the case of `CN(C)CCc1ccc(Nc2ncc3c(n2)N2CCC(=O)N2C(c2c(Cl)cccc2Cl)=C3)cc1`, the half-maximal inhibitory concentration (IC50) in data set [1] (read-out: IC50) was 21 nM. Moreover, in data set [2], the solubility was determined as 10 µg/mL (≈ 20.2 µM).
